# From patent US20130059793A1, “EGF RECEPTOR MIMICKING PEPTIDES” (BOARD OF REGENTS, THE UNIVERSITY OF TEXAS SYSTEM, priority 2010, published 2013)
# Tests used:
# [1] = molecular target: binding of TGFα to the EGFR (Homo sapiens, UniProt P01135); assay: Displacement of TGFα from immobilized EGFR (FIG. 6B); conditions: increasing molar concentrations
# Source text: (§1) The EGFR was coated onto 96-well plates at decreasing concentrations. […] D(CAAVC (SEQ ID NO:8)) was used as a negative peptidomimetic control at the same concentrations (circles). […] Bars represent mean±SEM.
# (§2) Decreasing molar concentrations of EGFR were immobilized in vitro, after which the native ligand (EGF or TGFα) was used to establish the baseline for the binding of EGF to the EGFR, or of TGFα to the EGFR.
# cetuximab = assay: Binding of synthetic peptides to cetuximab (ELISA-based, FIG. 3A, FIG. 4B); conditions: FIG. 4B (peptides plated at 10 μg/ml)
# Source text: BSA served as an additional negative control, and the EGFR, as a positive control. […] Insertless phage served as a negative control. […] Bars represent mean±SEM.
# (§3) A representative experiment is depicted. […] Bars represent mean±SEM. […] (FIG. 4C) Effect of the synthetic peptides on HN5 tumor cells. […] Viability in the absence of peptide was set to 100%. […] Bars represent mean±SEM. […] Receptors were immunoprecipitated with antibodies against phosphorylated (p) pEGFR and were immunoblotted with anti-phosphotyrosine IgG.
# (§4) The EGFR served as an immobilized positive control, and BSA or control peptides (CVAAC) served as immobilized negative controls.
# [2] = Nuclear magnetic resonance (NMR)-spectroscopy interactions; type: binding
# EGFR = assay: EGF-induced EGFR autophosphorylation (immunoprecipitation, anti-phosphotyrosine blot); type: cell-based, human; conditions: HN5 tumor cells, EGF 15 min, FIG. 4E
# Source text: as §3
# [3] = tested on: EF43.fgf-4-derived tumors; assay: Treatment of tumor-bearing mice with peptides and peptidomimetics, tumor volume; type: in vivo; conditions: at the end of two weeks; Balb/c mice, EF43.fgf-4 tumors; 750 μg/mouse/dose for 5 days; mean±SEM
# Source text: FIGS. 5A-B: CVRAC-targeted phage homes to tumor. (FIG. 5A) Targeting tumors versus control organs. […] An anti-phage antibody was used for staining H&E staining, with the corresponding fluorescence-based immunostaining, are shown in tumors (FIG. 5A). Tumor-bearing mice received CVRAC phage, CVAAC phage, or insertless control phage as indicated. Cohorts of tumor-bearing mice (n=5 mice/group) were used. A representative experiment is shown. Scale bar, 100 μm. (FIG. 5B) Treatment of tumor-bearing mice with peptides and peptidomimetics. Balb/c mice bearing EF43.fgf-4-derived tumors were divided into size-matched cohorts (n=7 mice/group); individual tumor volumes are represented before (black circles) and after (white circles). Peptides and peptidomimetics were administered at 750 μg/mouse/dose for 5 days. Shown are mean tumor volumes±SEM.
# Selective phage homing to tumors was evaluated as described (Hajitou et al., 2006; Arap et al., 1998). […] Each cohort of mice (n=3 per experiment) with size-matched tumors received a set of test and control phage clones. After 6 h, tumor-bearing mice were perfused through the heart with 20 ml of PBS containing 4% paraformaldehyde (PFA). […] For experimental therapy, Balb/c mice bearing EF43.fgf-4-derived tumors were established, and tumor volumes were determined as described (Arap et al., 1998; Hajitou et al., 2006; Ciardiello et al., 1999). […]
# ERK = assay: EGF-induced phosphorylation of ERK in HN5 cells; type: cell-based; conditions: human HN5 head and neck cells
# Source text: (§5) To dissect the downstream signal transduction cascade in this setting, proliferative, survival, and migratory pathways were examined.
# HN5 tumor cells = assay: Cell viability/proliferation, MTT assay, HN5; type: cell-based, human; parameters: cell proliferation / viability: dose or concentration left out as unconfirmed
# Procedure: as §3
# Tumor cell lines HN5, UMSCC 10A, GEO and EF43.fgf-4 were culture in standard conditions. Viability was assessed by MTT assays (Sigma) as described (Cardó-Vila et al., 2003). […] Samples were read at 570 nm.
# Tumor cell lines HN5, UMSCC 10A, GEO and EF43.fgf-4 were maintained in high-glucose DMEM, supplemented with 10% heat-inactivated fetal bovine serum, 20 mM HEPES (pH 7.4), 100 IU/ml penicillin, 100 μg/ml streptomycin, and 4 mM glutamine at 5% CO2 at 37° C. EF43.fgf-4 were grown in G418 as described (Hajitou et al., 2006).
# [4] = tested on: polyclonal anti-CVRAC antibodies; assay: ELISA recognition of peptides by polyclonal anti-CVRAC antibodies (FIG. 4B); type: binding, rabbit
# Source text: as §3
# Rabbits were immunized with KLH-conjugated CVRAC and a purified antibody was obtained. […] The capacity of rabbit IgG against CVRAC to recognize CVRAC, D(CARVC), and EGFR was measured by ELISA.
# as §4
# [5] = molecular target: binding of EGF to the EGFR (Homo sapiens, UniProt P01133); assay: Displacement of EGF from immobilized EGFR (FIG. 6A); conditions: D(CARVC) from 30 to 1,000 mM, cetuximab 12 nM positive control
# Sequence of binding of EGF to the EGFR (P01133 971-1023 limits assumed): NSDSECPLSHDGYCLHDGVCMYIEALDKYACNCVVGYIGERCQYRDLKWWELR
# Source text: as §1, §2
# AKT = assay: EGF-induced phosphorylation of AKT in HN5 cells; type: cell-based; conditions: human HN5 head and neck cells
# Source text: as §5
# p38 = assay: EGF-induced phosphorylation of p38 in HN5 cells; type: cell-based; conditions: human HN5 head and neck cells
# Source text: as §5
# Sequence of binding of TGFα to the EGFR (P01135 40-89 limits assumed): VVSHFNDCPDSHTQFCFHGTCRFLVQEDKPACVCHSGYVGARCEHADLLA
substance,measurement,setting,value
D(CARVC),displacement of TGFα from the EGFR,[1],concentration-dependent displacement
same,binding of synthetic peptide to cetuximab,cetuximab,retained binding activity
same,interactions by NMR-spectroscopy,[2],Low-affinity interactions (micromolar range)
same,EGF-induced tyrosine phosphorylation of the EGFR,EGFR,effectively inhibited
same,tumor volume,[3],550±50 mm^3
same,EGF-induced phosphorylation of ERK,ERK,inhibit
same,cell proliferation / viability,"HN5 tumor cells; HN5, MTT, 120 h, increasing concentrations, FIG. 4C",proliferated much less
same,activity on an equimolar basis compared with CVRAC,HN5 tumor cells; prolonged (120 h) functional assay,more potent
same,recognition by polyclonal anti-CVRAC antibodies,[4],recognized
same,displacement of EGF from the EGFR,[5],concentration-dependent effect
same,EGF-induced phosphorylation of AKT,AKT,inhibit
same,EGF-induced phosphorylation of p38,p38,not
